Columns and labels:
Assay in all cases: AUC of viability dose-response curve (% viability x log10 dose units); higher = less sensitive
Conditions in all cases: 48 h
NOMO1 = tested on: NOMO1
Summary of the method: (§1)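 In 1536-well plates, leukemia cells adapted to each medium (500 or 1000 cells/well) were exposed for 48 h at 37°C to library compounds in DMSO across 11 threefold doses, 47 μM down to 0.79 nM. Viability was read by CellTiter-Glo One luminescence and normalised per plate to DMSO and cell-free wells. A four-parameter log-logistic fit over log10 doses was integrated by trapezoidal rule. This yielded the area under the curve, with over-full-viability curves scaled and quality-control failures dropped.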

P12-Ichikawa = tested on: P12-Ichikawa
Summary of the method: as §1

SEM cells = tested on: SEM cells
Summary of the method: as §1

[1] = RPMI 5 mM glucose + 10% dialyzed FBS

SMILES | AUC of viability dose-response curve (NOMO1; HPLM + 10% dialyzed FBS) | AUC of viability dose-response curve (NOMO1; RPMI 5 mM glucose + 10% FBS) | AUC of viability dose-response curve (NOMO1; [1]) | AUC of viability dose-response curve (P12-Ichikawa; HPLM + 10% dialyzed FBS) | AUC of viability dose-response curve (P12-Ichikawa; RPMI 5 mM glucose + 10% FBS) | AUC of viability dose-response curve (P12-Ichikawa; [1]) | AUC of viability dose-response curve (SEM cells; HPLM + 10% dialyzed FBS) | AUC of viability dose-response curve (SEM cells; RPMI 5 mM glucose + 10% FBS) | AUC of viability dose-response curve (SEM cells; [1])
COc1cc([C@@H]2c3cc4c(cc3[C@H](O)[C@H]3COC(=O)[C@@H]23)OCO4)cc(OC)c1OC | 304 | 280 | 292 | 271 | 279 | 291 | 266 | 280 | 249
N\C1=N\C2=C(N=C[N]2COCCO)C(=O)N1 | 464 | 461 | 467 | 472 | 465 | 473 | 451 | 460 | 431
CC1=C(/C=C/C(C)=C/C=C/C(C)=C\C(=O)O)C(C)(C)CCC1 | 438 | 408 | 420 | 445 | 400 | 415 | 405 | 450 | 379
O=C/1NC(=O)C(=C1C2=CN=C3C=CC=C[N]23)/C4=C[N]5CCN(CC6=C5C4=CC=C6)C(=O)N7CCOCC7 | 470 | 465 | 462 | 334 | 301 | 370 | 138 | 153 | 151
CC1(CN2CCC(n3c(=O)[nH]c4ccccc43)CC2)OCc2ccccc2-n2cccc21 (configuration not stated) | 397 | 452 | 438 | 470 | 469 | 458 | 455 | 449 | 470
CC[N+](CC)(CC)CCOc1cccc(OCC[N+](CC)(CC)CC)c1OCC[N+](CC)(CC)CC | 400 | 439 | 445 | 451 | 455 | 456 | 423 | 463 | 477
CCOC(=O)[C@@]1(CCCCCCOc2ccc(Cl)cc2)CO1 | 458 | 444 | 456 | 448 | 452 | 454 | 428 | 413 | 426
C=C1C(=O)OC(CCCCCCCC)C1C(=O)O (configuration not stated) | 474 | 462 | 464 | 468 | 467 | 468 | 461 | 457 | 468
CCC(C)N1\N=C/N(C1=O)C2=CC=C(C=C2)N3CCN(CC3)C4=CC=C(OC[C@H]5CO[C@@](C[N]6C=NC=N6)(O5)C7=CC=C(Cl)C=C7Cl)C=C4 (some centres not stated) | 448 | 456 | 454 | 458 | 463 | 458 | 468 | 472 | 452
CCOC(=O)C(C#N)C\1C2=CC(=CC=C2O\C(=C1C(=O)OCC)N)Br (configuration not stated) | 445 | 449 | 447 | 467 | 452 | 463 | 450 | 462 | 421
CC(C)N(C[C@H]1O[C@@H](n2cnc3c(N)ncnc32)[C@H](O)[C@@H]1O)[C@H]1C[C@@H](CCc2nc3cc(C(C)(C)C)ccc3[nH]2)C1 | 386 | 450 | 429 | 320 | 450 | 383 | 411 | 333 | 399
OC1=CC=C(C=C1)\C2=C\OC3=C(C(=CC(=C3)O)O)C2=O | 459 | 455 | 473 | 466 | 471 | 468 | 452 | 395 | 433
COc1cc(CCc2cc(NC(=O)c3ccc(N4C[C@@H](C)N[C@@H](C)C4)cc3)n[nH]2)cc(OC)c1 | 442 | 466 | 455 | 448 | 435 | 414 | 333 | 319 | 332
C[C@@H]1CCN(C(=O)CC#N)C[C@@H]1N(C)c1ncnc2[nH]ccc12 | 407 | 376 | 414 | 411 | 413 | 377 | 381 | 453 | 430
N#CC(c1ccnc(NCCc2cccnc2)n1)c1nc2ccccc2s1 (configuration not stated) | 469 | 475 | 450 | 467 | 473 | 470 | 454 | 448 | 468
CC(C)=CCC/C(C)=C/CC/C(C)=C/CC/C(C)=C/CC/C(C)=C/CC/C(C)=C/CC/C(C)=C/CC/C(C)=C/CC/C(C)=C/CO | 450 | 462 | 455 | 467 | 457 | 465 | 475 | 436 | 431
C[C@@H]1CN(Cc2ccc(F)cc2)[C@@H](C)CN1C(=O)c1cc2c(C(=O)C(=O)N(C)C)cn(C)c2cc1Cl | 467 | 474 | 475 | 471 | 472 | 471 | 462 | 413 | 449
CN1C(=O)C(=C\C2=C1N=C(NC3=CC=CC(=C3)C(O)=O)N=C2)/C4=C(Cl)C=CC=C4Cl | 465 | 467 | 461 | 468 | 465 | 463 | 439 | 405 | 426
Cc1cn([C@H]2C=C[C@@H](CO)O2)c(=O)[nH]c1=O | 474 | 435 | 453 | 468 | 475 | 474 | 465 | 450 | 469
[O-]C(=O)C/1=N/C(=O)NC(=O)N1 | 444 | 434 | 408 | 441 | 427 | 420 | 423 | 412 | 438
CCOc1cc2ncc(C#N)c(Nc3ccc(F)c(Cl)c3)c2cc1NC(=O)/C=C/CN(C)C | 323 | 385 | 353 | 312 | 338 | 320 | 321 | 300 | 312
Cc1ccc([N+](=O)[O-])cc1[S+](=O)([O-])N(C)/N=C/c1cnc2ccc(Br)cn12 | 196 | 223 | 217 | 250 | 240 | 244 | 203 | 207 | 222
CCOC(=O)N1c2ccc(C(F)(F)F)cc2[C@@H](N(Cc2cc(C(F)(F)F)cc(C(F)(F)F)c2)C(=O)OC)C[C@H]1CC | 434 | 460 | 470 | 449 | 466 | 471 | 462 | 460 | 468
O=C(CCCCCCC(=O)Nc1ccc([C@H]2O[C@@H](CSc3nc(-c4ccccc4)c(-c4ccccc4)o3)C[C@@H](c3ccc(CO)cc3)O2)cc1)NO | 405 | 406 | 403 | 378 | 376 | 362 | 398 | 397 | 391
C[N]1C=C(C2=CC=CC=C12)\C3=C(\C(=O)NC3=O)C4=C[N](C5CCN(CC5)CC6=NC=CC=C6)C7=C4C=CC=C7 | 458 | 424 | 445 | 472 | 475 | 472 | 461 | 446 | 454
C[C@H](CCC(=O)O)[C@H]1CCC2C3C[C@H](O)[C@@H]4C[C@H](O)CC[C@]4(C)C3CC[C@@]21C (some centres not stated) | 449 | 458 | 459 | 454 | 450 | 463 | 452 | 452 | 469
COC(=O)Nc1nc2cc(C(=O)c3ccc(F)cc3)ccc2[nH]1 | 372 | 426 | 402 | 365 | 377 | 388 | 343 | 363 | 374
CC(=O)N[C@@H]1[C@@H](NC(N)=N)\C=C(/O[C@H]1[C@H](O)[C@H](O)CO)C(O)=O | 464 | 463 | 443 | 461 | 466 | 471 | 457 | 421 | 419

From the supplement of paper PMC11451515
